Tests used:
eNOS = details: cited from earlier work
[1] = test system: bacteria and fungi in wine; details: cited from earlier work
acetobacter xilum = experiment: Antibacterial specificity: acetobacter
lactobacilus = experiment: Antibacterial specificity: lactobacilli
[2] = cited from earlier work
malolactic conversion = experiment: Effect on malolactic conversion in wine
Excerpt: Another important process in wine-making is the Malolactic fermentation. Malic acid is naturally present in the grape must, but it adds an unpleasant taste to the wine. […] As discussed above, nearly all red wines undergo malolactic fermentation. As discussed above, the conversion is usually carried out by introducing a lactobacteria (most commonly the Oenococus-Oeni lactobacteria) to the wine after an initial fermentation step. […] Therefore, in wine preserved with resveratrol and/or pterostilbene, the malolactic fermentation can take place during the initial alcohol-fermentation process. That is, no separate step of malic and lactic fermentation needs to be carried out when wine is preserved with resveratrol and/or pterostilbene.

| Molecule | eNOS expression or eNOS promoter activity (eNOS) | other results |
| --- | --- | --- |
| COc1cc(C=CC(=O)O)cc(OC)c1O (stereo in doubt) [sinapinic acid] | did not change |  |
| Oc1ccc(/C=C/c2cc(O)cc(O)c2)cc1 [Resveratrol, 3,4′,5-trihydroxy-trans-stilbene] | most efficacious stimulator | antibacterial and antifungal activity in wine [1]: antibacterial and antifungal activity; inhibition of acetobacter xilum (acetobacter xilum): specific inhibitor; anti-bacterial properties against lactobacilus (lactobacilus): no anti-bacterial properties |
| O=C(O)c1ccccc1 [benzoic acid] | enhanced eNOS expression moderately |  |
| O=C(O)/C=C/c1ccc(O)c(O)c1 [caffeic acid] | enhanced eNOS expression moderately |  |
| COc1cc(/C=C/C(=O)O)ccc1O [ferulic acid] | did not change |  |
| O=c1c(O)c(-c2ccc(O)c(O)c2)oc2cc(O)ccc12 [fisetin] | did not change |  |
| O=C(O)c1cc(O)c(O)c(O)c1 [gallic acid] | did not change |  |
| O=c1c(O)c(-c2cc(O)c(O)c(O)c2)oc2cc(O)cc(O)c12 [myricetin] | did not change |  |
| O=C(O)/C=C/c1ccc(O)cc1 [p-coumaric acid] | enhanced eNOS expression moderately |  |
| COc1cc(/C=C/c2ccc(O)cc2)cc(OC)c1 [pterostilbene, 4-[(E)-2,(3,5-dimethoxyphenyl)ethenyl]phenol] |  | water solubility [2]: less water soluble than resveratrol |
| COc1cc(C(=O)O)ccc1O [vanillic acid] | enhanced eNOS expression moderately |  |
| catechin | did not change |  |
| sulfur dioxide [SO2] |  | effect on malolactic conversion (malolactic conversion): suppress the malolactic conversion |
